Source: publication PMC6058718, “Doxorubicin conjugated with a trastuzumab epitope and an MMP-2 sensitive peptide linker for the treatment of HER2-positive breast cancer” (Drug Delivery, 2018)
Like-named read-outs stand apart in the source and are kept apart here. Where a SMILES comes first, the peptide text is derived from it. Bridges are numbered along the chain shown (N, C = ends). Where no end group is shown, it is not given here. The star is where a group is joined. Glutaryl(5-(14-O-Dox)) = COc1cccc2c1C(=O)c1c(O)c3c(c(O)c1C2=O)C[C@@](O)(C(=O)COC(=O)CCCC(=O)*)C[C@@H]3O[C@H]1C[C@H](N)[C@H](O)[C@H](C)O1

B1: anti-HER2 peptide mimetic AHNP (peptide)
peptide: YCDGFYACYMDV-NH2
modifications: disulfide 2-8

Key:
[1] = Pharmacokinetic profile in plasma of mice; details: intravenous injection, blood 0.083-24 h post injection, LC-MS/MS, n = 3
Experimental: (§1) When the tumor size reached a volume of about 50 mm^3, the mice were randomly divided into three groups (each group consisted of 6 mice) for the treatment with 5 mg DOX equivalent/kg of either free DOX or MAHNP-DOX once every seven days for three times. Saline was used as negative control. The animals’ weight and tumor dimensions were measured every five days. Tumor volume was calculated using an equation: TV =1/2 × a × b^2, where a is the largest diameter and b is the smallest diameter. Each animal was tagged in the ear and followed individually throughout the experiment. For in vivo imaging study, the mice were intravenously injected through the caudal vein by 5 mg DOX equivalent/kg of free DOX and MAHNP-DOX, images were taken on IVIS LuminaXR imaging system (Perkin Elmer, San Diego, CA, USA) at 4 h post injection. Tumors and organ samples including heart, liver, spleen, kidneys and lungs were carefully removed and stored in liquid nitrogen. To assess the pharmacokinetic profile of the drugs, free DOX and MAHNP-DOX were injected intravenously into the mice, respectively. Blood samples were collected at 0.083, 0.25, 0.5, 1, 2, 4, 8, 12 and 24 h post injection.

BT474 xenografts = details: nude mice with BT474 xenografts, 5 mg DOX equivalent/kg once every seven days for three times
Experimental: Eighteen athymic nude mice (Balb/c nu/nu, females) were used. All animal experiments were carried out in accordance with guidelines evaluated and approved by the ethics committee of Nanjing Medical University. BT474 cells were first collected in a concentration of 1 × 10^7/mL and orthotopically injected into the mammary fat pad area of each mouse with 0.1 mL PBS/mouse.
as §1

BT474 cells [2] = test: MTT cytotoxicity assay, BT474 cells; format: cell-based, human
Experimental: (§2) The cytotoxicity of MAHNP-DOX was determined using MTT test. Free DOX was used as positive control, and the cells treated with conditioned medium only were considered as negative control. BT474 and SKBR3 cells in exponential growth were seeded in a 96-well plate and incubated for 24 h at 37 °C. Then, a series of dilutions of free DOX and MAHNP-DOX at equivalent concentration were prepared with the conditioned medium and incubated for another 48 h. After an addition of MTT solution (5 mg/ml in PBS) to each well, the cells were incubated for 4 h and lysed in DMSO. Absorbance was determined at 490 nm using an EL ×800 absorbance microplate reader (Biotek, Winooski, VT, USA). The IC50 values were calculated from the linear regression of the dose–log response curves using GraphPad Prism 6 software (GraphPad Software, San Diego, CA, USA).
(§3) To further confirm the dependence of cytotoxicity on MMP-2 activity, NIH-3T3 cells were pre-incubated with 10 μM MMP-2 inhibitor I in serum-free medium for 24 h, and the medium was also collected termed as treated conditioned medium. Following the procedure above, the cytotoxicity of MAHNP-DOX was also determined using this medium.

SKBR3 cells [3] = test: MTT cytotoxicity assay, SKBR3 cells; format: cell-based, human
Experimental: as §2, §3

MMP-2 = molecular target: T1, MMP-2 (Mus musculus, UniProt P33434); test: Enzymatic cleavage of MAHNP-DOX by MMP-2 in NIH-3T3 conditioned medium; format: in vitro ADME; details: 5 μM MAHNP-DOX in concentrated conditioned medium from NIH-3T3 cells containing active MMP-2, 37 °C, 2 h of incubation, HPLC / LC-MS/MS
T1 construct: 4 mL of the medium containing active MMP-2 (i.e. conditioned medium) was collected and concentrated; endogenous in cells; host or cells: NIH-3T3 fibroblasts; serum-free conditioned medium concentrated with a 10 K centrifugal filter
Experimental: NIH-3T3 cells that can secrete active MMP-2 (Figure S1) were cultured in serum-free medium for 24 h. Then, 4 mL of the medium containing active MMP-2 (i.e. conditioned medium) was collected and concentrated to 500 μL using Amicon Ultra-4 10 K centrifugal filter devices (Millipore, Bedford, MA, USA) (Aye et al., [2004]). Dilution of MAHNP-DOX at a concentration of 5 μM was prepared with the concentrated conditioned medium and incubated at 37 °C. Aliquots were removed at 1 h and 2 h and then analyzed by LC–MS/MS (van Duijnhoven et al., [2011]). The analysis was performed on XBridge™ C18 column (5 μm, 4.6 × 250 mm; Waters, Milford, MA, USA) at room temperature. The flow rate of HPLC was 0.3 mL/min with a mobile phase consisted of solvent A (water with 0.1% FA) and solvent B (ACN). The gradient was as follows: B 0 min (10%) → 15 min (90%) → 20 min (90%) → 25 min (10%).
The sensitivity of MAHNP-DOX to MMP-2 was studied using HPLC. To date, there has been substantial evidence indicating stronger signals for MMP-2 in stromal cells compared to cancer cells, while stromal fibroblasts interact with cancer cells by secreting and activating MMP-2 (Saad et al., [2002]; Hassona et al., [2014]). […] Thus, the peaks for MAHNP-DOX and one product after cleavage of GLPG-DOX were monitored. […]

[4] = Biodistribution in BT474 tumor-bearing mice by fluorescent imaging and HPLC; format: in vivo; details: 4 h after intravenous injection, 5 mg DOX equivalent/kg
From the text: Saline was used as negative control.
Daunorubicin (DAU) was used as internal standard.

BT474 cells [5] = test: TUNEL assay, BT474 cells; format: cell-based, human; details: 24 h treatment, n = 3
Experimental: (§4) Transferase-mediated nick-end labeling assay was carried out using the DeadEnd Fluorometric TUNEL system kit (Promega, Madison, WI, USA). […] Images were acquired at room temperature with an inverted fluorescence microscope (Leica, DMI3000B, Wetzlar, Germany).

SKBR3 cells [6] = test: TUNEL assay, SKBR3 cells; format: cell-based, human; details: 24 h treatment, n = 3
Experimental: as §4

[7] = molecular target: human epidermal growth factor receptor family member HER2 (human (endogenous in BT474 and SKBR3)) (UniProt P04626)
[8] = 48 h, in conditioned medium, n = 3, read-out: IC50
[9] = conditioned medium from NIH-3T3 cells pretreated with 10 μM MMP-2 inhibitor I, n = 3, read-out: IC50 with MMP-2 inhibitor pretreatment

T1 sequence (P33434 110-662): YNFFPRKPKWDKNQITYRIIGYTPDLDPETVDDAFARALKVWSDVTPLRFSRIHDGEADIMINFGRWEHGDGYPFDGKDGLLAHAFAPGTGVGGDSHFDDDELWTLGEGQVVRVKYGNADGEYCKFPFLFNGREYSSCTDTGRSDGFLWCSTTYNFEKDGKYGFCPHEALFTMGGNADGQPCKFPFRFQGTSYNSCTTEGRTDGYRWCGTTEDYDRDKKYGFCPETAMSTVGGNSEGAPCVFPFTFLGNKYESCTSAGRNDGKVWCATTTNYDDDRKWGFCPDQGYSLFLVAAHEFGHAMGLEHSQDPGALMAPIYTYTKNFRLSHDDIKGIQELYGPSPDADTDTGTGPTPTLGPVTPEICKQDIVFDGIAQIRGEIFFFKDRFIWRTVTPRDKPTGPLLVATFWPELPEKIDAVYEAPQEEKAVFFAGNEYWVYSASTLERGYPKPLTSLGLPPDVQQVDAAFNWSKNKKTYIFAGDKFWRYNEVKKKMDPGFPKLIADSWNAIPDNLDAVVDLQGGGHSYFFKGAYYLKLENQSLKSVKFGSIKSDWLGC

increase of the cell population in the G1 phase, BT474 cells, 48 h exposure to AHNP (10 μM) alone, flow cytometry [7] [%] | increase of the cell population in the G1 phase, SKBR3 cells, 48 h exposure to AHNP (10 μM) alone, flow cytometry [7] [%] | Molecule | half-life t1/2 in plasma [1] [h] | toxicity / body weight change (BT474 xenografts) | IC50 (BT474 cells [2]; [8]) [nM] | IC50 (BT474 cells [2]; [9]) [nM] | IC50 (SKBR3 cells [3]; [8]) [nM] | IC50 (SKBR3 cells [3]; [9]) [nM] | efficiency of cleavage (MMP-2) [%] | drug amount in the tumors compared with free DOX ([4]; fluorescent images confirmed by HPLC, p < .01) | drug accumulation in heart, liver, spleen, lung and kidney compared with free DOX ([4]; p < .05) | tumor growth inhibition (BT474 xenografts; day 25 after treatment) [%] | percentage of apoptotic cells (BT474 cells [5]) [%] | percentage of apoptotic cells (SKBR3 cells [6]) [%]
 |  | COc1cccc2c1C(=O)c1c(O)c3c(c(O)c1C2=O)C[C@@](O)(C(=O)COC(=O)CCCC(=O)NCC(=O)N1CCC[C@H]1C(=O)N[C@@H](CC(C)C)C(=O)NCC(=O)N[C@@H](CC(C)C)C(=O)N[C@@H](C)C(=O)NCC(=O)N[C@@H](CC(=O)O)C(=O)N[C@@H](CC(=O)O)C(=O)N[C@@H](Cc1ccc(O)cc1)C(=O)N[C@H]1CSSC[C@@H](C(=O)N[C@@H](Cc2ccc(O)cc2)C(=O)N[C@@H](CCSC)C(=O)N[C@@H](CC(=O)O)C(=O)N[C@H](C(N)=O)C(C)C)NC(=O)[C@H](C)NC(=O)[C@H](Cc2ccc(O)cc2)NC(=O)[C@H](Cc2ccccc2)NC(=O)CNC(=O)[C@H](CC(=O)O)NC1=O)C[C@@H]3O[C@H]1C[C@H](N)[C@H](O)[C@H](C)O1 [MAHNP-DOX] ({Glutaryl(5-(14-O-Dox))}-GPLGLAGDDYCDGFYACYMDV-NH2; disulfide 11-17) | 17.6 ± 6.4 | less weight loss | 747 ± 81.5 | 1350 ± 154 | 110 ± 12.7 | 147 ± 16.3 | 80.8 | significantly higher | lower |  |  | 
 |  | COc1cccc2c1C(=O)c1c(O)c3c(c(O)c1C2=O)C[C@@](O)(C(=O)CO)C[C@@H]3O[C@H]1C[C@H](N)[C@H](O)[C@H](C)O1.Cl [free DOX, Doxorubicin hydrochloride] | 7.7 ± 1.6 | Toxicity was observed | 2080 ± 368 |  | 173 ± 19.2 |  |  |  |  | 53.4 ± 6.6 | 34.2 ± 2.1 | 44.8 ± 2.8
6.58 | 9.95 | B1 |  |  |  |  |  |  |  |  |  |  |  | 
